Source: PMC7938888, “Antidepressant drugs act by directly binding to TRKB neurotrophin receptors” (Cell, 2021)
Entries after “also recorded” stand apart in the source; their conditions may differ.

Assays:
TRKB/TRKA.TM = experiment: Cell-free ligand binding assay, chimeric TRKB with TMD of TRKA; details: biotinylated fluoxetine
[1] = tested on: GluR1 subunit of AMPA receptors; experiment: Surface GluR1 ELISA in cortical cells of TRKB.Y433F mice; format: cell-based, mouse
Description: Briefly, the MG87.TRKB cells or primary cortical cells from rat or mouse embryos, cultivated in clear bottom 96-well plates (ViewPlate 96, Perkin Elmer), were washed with ice-cold PBS and fixed with 100μl of 4% PFA per well. […] Following washing, the samples were incubated with HRP-conjugated anti-goat or anti-rabbit IgG (1:5000 in blocking buffer) for 1h at RT. The cells were washed 4x with 200μl of PBS for 10 min each. Finally, the chemiluminescent signal generated by reaction with ECL was analyzed in a plate reader.

Sprague-Dawley rats = experiment: BDNF-induced LTP in dentate gyrus of anesthetized rats; format: in vivo, rat; details: anesthetized rats, 2 μl of 1 ug/ul over 30 min
Description: In vivo electrophysiology. Intrahippocampal BDNF infusion was performed as described previously ([Messaoudi et al., 1998]). The experiments were carried out on 20 adult male Sprague-Dawley rats (15 weeks old, Janvier, France). Rats were housed in the animal facility for 1-week prior to the start of drug administration. […]
For electrophysiological experiments, rats were anesthetized with an intraperitoneal injection of urethane (U2500, Sigma-Aldrich) 1.5 g/kg body weight, positioned in a stereotaxic frame. The body temperature was constantly monitored and maintained at 37°C with an electric heating pad. Holes were drilled in the skull and a concentric bipolar stimulating electrode (Tip separation 500micrometers; SNEX 100; Rhodes Medical Instruments, Woodland Hills, CA) was positioned in the angular bundle for stimulation of the medial perforant path (7.9 mm posterior to bregma, 4.2 mm lateral to the midline, and 2.5 mm below the dura. […]
Responses were allowed to stabilize for 1 hour at a stimulation intensity that produced a population spike 30% of maximum. […] Evoked responses were recorded for 120 min post infusion. Recorded field potentials were amplified, filtered (0.1 Hz to 10 kHz), and digitized (25 kHz). Electrophysiological data was analyzed using Datawave Technologies Software company. […]

| Molecule | binding to chimeric TRKB with the TMD of TRKA (TRKB/TRKA.TM) | increase in surface GluR1 in neurons from TRKB.Y433F mutant mice [1] | synaptic strength after infusion into the dentate gyrus (Sprague-Dawley rats) |
| --- | --- | --- | --- |
| CNCCC(Oc1ccc(C(F)(F)F)cc1)c1ccccc1 (stereo not drawn) [FLX, fluoxetine] | failed to bind; also recorded: very low | prevented | – |
| BDNF: brain-derived neurotrophic factor, TRKB ligand (protein, UniProt P23560 19-247, looked up) Neurotrophic factor BDNF …: APMKEANIRGQGGLAYPGVRTHGTLESVNGPKAGSRGLTSLADTFEHVIEELLDEDQKVRPNEENNKDADLYTSRVMLSSQVPLEPPLLFLLEEYKNYLDAANMSMRVRRHSDPARRGELSVCDSISEWVTAADKKTAVDMSGGTVTVLEKVPVSKGQLKQYFYETKCNPMGYTKEGCRGIDKRHWNSQCRTTQSYVRALTMDSKKRIGWRFIRIDTSCVCTLTIKRGR | – | – | significantly increased synaptic strength |
